Experimental data as given in PubChem BioAssay (NCI).
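In this assay, cells in 96-well plates receive the compound at five concentrations for 48 hours. Endpoints are linearly interpolated between the surrounding concentrations. At the GI50, growth is halved. TGI denotes the concentration required for complete inhibition of growth.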

Experiments:
Assay in all cases: growth of human tumour cells (NCI), 48 h
DMS 273 small cell lung = test system: DMS 273 small cell lung
LXFL 529 NSCLC = test system: LXFL 529 NSCLC
MDA-N = test system: MDA-N
RXF-631 renal = test system: RXF-631 renal
SNB-78 CNS = test system: SNB-78 CNS
DLD-1 colon = test system: DLD-1 colon
HOP-18 NSCLC = test system: HOP-18 NSCLC

SMILES	TGI (DMS 273 small cell lung)	TGI (LXFL 529 NSCLC)	TGI (MDA-N)	TGI (RXF-631 renal)	TGI (SNB-78 CNS)	TGI (DLD-1 colon)	TGI (HOP-18 NSCLC)	GI50 (MDA-N)
CCN(CC)CCn1c2ccccc2c(=O)c2c(O)ccc(O)c21	> 100 µM	41.7 µM	34.4 µM	> 66.8 µM	> 60.2 µM			
Cc1cc(Cc2cc(C)cc(C(C)(C)C)c2O)c(O)c(Cc2cc(C)cc(C(C)(C)C)c2O)c1			11.9 µM					
O=c1nc(NC(c2ccccc2)(c2ccccc2)c2ccccc2)ccn1CCNCCn1ccc(NC(c2ccccc2)(c2ccccc2)c2ccccc2)nc1=O	21.6 µM	26.2 µM				> 100 µM	43.8 µM	
Cc1ccc([N+](=O)[O-])cc1NC(=O)c1cccc([N+](=O)[O-])c1O	76.4 µM	78.1 µM			80.7 µM	> 100 µM		
COc1cc2c(cc1OC)[C@H]1C(COC(=O)c3ccccc3)CSC(=Nc3ccccc3)N1CC2 (stereo not given in full)	> 100 µM	> 100 µM			> 100 µM	> 100 µM	> 100 µM	
CN(C)CCNC(=O)c1cccc2[nH]c(-c3cccnc3)nc12	74.4 µM				> 100 µM	73.1 µM	84 µM	
CCOC(=O)/C(=C\c1ccc(C#N)cc1)C(C)=O			> 100 µM					
CN1C(=O)C(CC(=O)O)NC1=S (stereo not given)			> 100 µM					
C/C=C1/CCC2c3[nH]c4ccccc4c3CCN2C1 (stereo not given)	> 100 µM	> 100 µM			> 100 µM	> 100 µM		
CN(C)C=[N+]=[N-]	> 100 µM	> 100 µM			> 100 µM	> 100 µM	> 100 µM	
Cc1c(C(=O)CC(=O)C(=O)Nc2ccc(Cl)cc2)[n+](=O)c2ccccc2n1[O-]	> 100 µM	> 100 µM			> 100 µM	> 100 µM	> 100 µM	
COc1ccc(S(=O)(=O)N/N=C/c2cc(I)cc([N+](=O)[O-])c2O)cc1OC	> 100 µM	70.3 µM		> 100 µM	65.1 µM	> 100 µM	68.5 µM	
C=C1C(=O)OC2C=C(CCC(C)=O)C(C)C(OC(C)=O)CC12 (stereo not given)		1.67 µM			27.4 µM		24.1 µM	
CCCC/C=C1\CCC(C)(CN(C)C)C1=O (stereo not given)		> 100 µM			> 100 µM		> 100 µM	
CC(=O)OCC(=O)[C@@]12OC(C)(C)O[C@@H]1C[C@H]1[C@@H]3CC=C4C[C@@H](O)CC[C@]4(C)[C@H]3CC[C@@]12C			> 100 µM					
N#CCCN(c1ccc(C=Nc2ccccc2Cl)cc1)S(=O)(=O)c1ccccc1	> 100 µM	> 100 µM		> 100 µM	> 100 µM	> 100 µM	> 100 µM	
CN1CC[C@]2(C)c3cc(O)ccc3CC3CCCC1C32C (stereo not given in full)		> 100 µM		> 100 µM	> 100 µM	> 100 µM	> 100 µM	
O=C(O)CCC(NC(=O)c1ccccc1)C(=O)O (stereo not given)	> 100 µM	> 100 µM		> 100 µM	> 100 µM	> 100 µM	> 100 µM	
O=C(c1ccccc1)[C@@H]1C[C@H](Sc2ccccc2)c2cc(Cl)ccc2N1	84 µM	77.5 µM		83.1 µM	> 100 µM	> 100 µM	> 100 µM	
COc1cc(C(O)C(=O)c2nc3ccc([N+](=O)[O-])cc3[nH]c2=O)ccc1O (stereo not given)	> 100 µM	> 100 µM			> 100 µM	> 100 µM		
Cc1cc(NS(=O)(=O)c2ccc(NC(=O)c3ccc(Cl)c4c(Nc5ccc(S(=O)(=O)N=C(N)N)cc5)c5ccccc5nc34)cc2)no1		> 100 µM			> 100 µM	> 100 µM		

SMILES	TGI (DMS 273 small cell lung)	TGI (LXFL 529 NSCLC)	TGI (MDA-N)	TGI (RXF-631 renal)	TGI (SNB-78 CNS)	TGI (DLD-1 colon)	TGI (HOP-18 NSCLC)	GI50 (MDA-N)
O=C1C2C=CC(C2)C(c2ccc(O)cc2)N1O (stereo not given)		> 100 µM			> 100 µM	> 100 µM		
C[N+]1(C)C/C(=C\c2ccccc2)C(=O)/C(=C/c2ccccc2)C1	> 100 µM	> 100 µM		> 100 µM	> 100 µM	> 100 µM	> 100 µM	
CNC(=O)CC1NC(=O)c2csc(n2)-c2ccc(-c3nc(C4=NC(C(=O)N5CCCC5C(N)=O)CO4)cs3)nc2-c2csc(n2)-c2csc(n2)C(C(C)C)NC(=O)CNC(=O)c2csc(n2)C(C(C)C)NC(=O)c2nc1sc2C (stereo not given)								< 0.001 µM
CC(O)c1ccc[n+](Cc2ccccc2)c1 (stereo not given)	> 400 µM	> 400 µM		> 400 µM		> 400 µM	> 400 µM	
O=C(O)C1C(C(=O)O)C23CC2(C(=O)O)C2(C(=O)O)CCC3=C3CCCC312 (stereo not given)			89.2 µM					
COC(=O)NN=C1C(C)(C)C(=O)C1(C)C	> 100 µM	> 100 µM		> 100 µM	> 100 µM	> 100 µM		
Cc1[nH]c(=O)n2c(C)nnc2c1C(=O)Nc1cc(Cl)cc(Cl)c1		> 100 µM			69.6 µM	> 100 µM		
C=C1C(=O)O[C@H]2[C@H](OC(C)=O)[C@@H](C)CCC/C(C)=C/CC[C@@]3(C)O[C@@H]3C[C@@H]12			10.6 µM					
CC1=NN(C(=O)CC(=O)NC(=O)CC(=O)Nc2ccccc2F)C(=O)C1N=Nc1ccc([N+](=O)[O-])cc1 (stereo not given)	> 100 µM	> 100 µM		> 100 µM	> 100 µM	> 100 µM	> 100 µM	
COc1ccc2c(c1)Oc1cc(O)ccc1[C@@H]2c1ccccc1C(=O)NC(C)c1ccccc1 (stereo not given in full)	28.2 µM	30.1 µM			32.6 µM	39.4 µM		
Cc1ccc(NC(=O)C(=O)CC(=O)c2c(C)n([O-])c3ccccc3[n+]2=O)cc1	59.6 µM	> 100 µM		> 100 µM	> 100 µM		> 100 µM	
O=C(O)c1cc(-c2ccncc2)nc2ccccc12			> 100 µM					
O=C(NCCCCCCNC(=O)OCCSCCn1cc(C(=O)NC(=O)OCc2ccccc2)c(=O)[nH]c1=O)OCCSCCn1cc(C(=O)NC(=O)OCc2ccccc2)c(=O)[nH]c1=O	> 100 µM	> 100 µM		> 100 µM	> 100 µM	> 100 µM		
COc1ccc(C(=O)/C=C/c2ccc3c(c2)OCO3)c(OCc2ccccc2)c1			> 100 µM					
O=C1CCCC(=O)N1CCc1c[nH]c2ccccc12	> 100 µM	> 100 µM		> 100 µM	> 100 µM	> 100 µM		
CC(C)(CN1CCCCC1)C(=O)/C=C/c1ccc(Cl)cc1	13.3 µM	9.75 µM		29.9 µM	11.8 µM	22.9 µM	23.1 µM	
Cn1ccc2c(C(=O)c3ccccc3)cccc2c1=O	> 100 µM	> 100 µM				> 100 µM		
Fc1ccccc1C1SCc2nc3ccccc3n21 (stereo not given)	> 100 µM	> 100 µM		> 100 µM	> 100 µM	> 100 µM		
c1ccc2cc3[s+]snc3cc2c1	> 100 µM	> 100 µM		> 100 µM	> 100 µM	> 100 µM	> 100 µM	
COC(=O)[C@]12CC=C3O[C@@H]4OC5(CCCCC5)O[C@@H]4C3[C@@H]1C(=O)CCC2=O (stereo not given in full)	> 100 µM	> 100 µM		> 100 µM	> 100 µM	> 100 µM	> 100 µM	
